Publication PMC1865377, “A novel bifunctional N-acetylglutamate synthase-kinase from Xanthomonas campestris that is closely related to mammalian N-acetylglutamate synthase” (BMC Biochemistry, 2007)

Legend:
H6XcNAGS-K [1] = target: T1, H6XcNAGS-K (Xanthomonas campestris, UniProt A0A0H2X8L7); experiment: synthase activity, LC-MS of N-acetylglutamate; assay type: biochemical; conditions: 50 mM L-glutamate, 2 mM AcCoA, pH 9.0, 30 °C
T1 construct: gene XC_1873; full length, E. coli BL21(DE3), pET15b, N-terminal polyhistidine tag and thrombin site kept
T1 sequence (A0A0H2X8L7 1-447): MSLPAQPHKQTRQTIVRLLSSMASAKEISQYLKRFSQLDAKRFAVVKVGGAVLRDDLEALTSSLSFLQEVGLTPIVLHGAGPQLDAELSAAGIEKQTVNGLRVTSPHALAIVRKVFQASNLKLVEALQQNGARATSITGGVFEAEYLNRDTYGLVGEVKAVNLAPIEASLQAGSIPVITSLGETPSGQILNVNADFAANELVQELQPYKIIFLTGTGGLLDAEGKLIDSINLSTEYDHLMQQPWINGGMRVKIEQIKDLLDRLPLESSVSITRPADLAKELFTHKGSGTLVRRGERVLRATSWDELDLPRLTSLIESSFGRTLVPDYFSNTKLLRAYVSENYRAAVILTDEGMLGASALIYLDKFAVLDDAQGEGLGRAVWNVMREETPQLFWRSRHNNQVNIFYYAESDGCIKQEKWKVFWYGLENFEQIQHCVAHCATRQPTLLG

H6XcNAGS-K [2] = target: T1, H6XcNAGS-K; experiment: kinase activity, colorimetric hydroxamate assay; assay type: biochemical; conditions: 100 mM N-acetylglutamate, 20 mM ATP, 40 mM MgCl2, 400 mM hydroxylamine, pH 6.0, 30 °C

`N=C(N)NCCC[C@H](N)C(=O)O` [L-arginine] was tested, and the half-inhibition (H6XcNAGS-K [1]) was “presence of an affinity tag did not affect the inhibition of the synthase activity of XcNAGS-K” and the half-inhibition (H6XcNAGS-K [2]) was “half-inhibition of the kinase activities of XcNAGS-K with and without polyhistidine differed two-fold”.
